Source: patent US20060148730A1, “Method of treating tuberculosis” (priority 2003, published 2006)
pIC50: −log10 of the molar value. Converted amounts (≈) assume the structure as drawn. Like-named read-outs stand apart in the source and are kept apart here.

Key:
VERO cells = assay: Cytotoxicity against VERO cells (MTS, 72 hours); conditions: result in words
M. tuberculosis H37Rv = assay: MIC vs. M. tuberculosis H37Rv, microplate Alamar Blue assay (MABA); format: cell-based; conditions: for anti-TB activity / MIC in words: result in words
[1] = Overt toxicity in mice, escalating 5-day dosing cycles; format: in vivo, Balb/C mice; conditions: once daily, 5-day cycles, sequentially 200, 300, 400, 500 mg/kg
Experimental: Prior to assessing in vivo efficacy, RU66252 and RU69874 were administered to pairs of female Balb/C mice once daily for 5-day cycles, and observed for overt signs of toxicity (e.g., weight loss, ruffled fur, and huddling), after which the mice were rested for 1 or 2 days. Then the dosage was increased for another 5-day cycle. Overall, the same mice received sequentially for 5 days: 200, 300, 400, and 500 mg/kg.

[2] = system: J774.1 macrophage cell line; assay: Cytotoxicity against J774.1 macrophage cell line; format: cell-based, murine; conditions: Mus musculus
[3] = Table 1a, 11,12-carbamate derivatives, anti-TB activity, read-out: MIC
[4] = Table 2a, 11,12-diols, anti-TB activity, read-out: MIC

| Compound | MIC (M. tuberculosis H37Rv; [3]) [µM] | anti-TB activity / MIC in words (M. tuberculosis H37Rv) | other results |
| --- | --- | --- | --- |
| CC[C@H]1OC(=O)[C@@](C)(F)C(=O)[C@H](C)[C@@H](O[C@@H]2O[C@H](C)C[C@H](N(C)C)[C@H]2O)[C@](C)(OCC#Cc2cc(-c3cnc4ccccc4c3)no2)C[C@@H](C)C(=O)[C@H](C)[C@H]2NC(=O)O[C@@]21C [Compound A323348] | 0.38 (≈ 0.323 µg/mL) | very low | in vitro toxicity / cytotoxicity in words (VERO cells): comparable to clarithromycin; MIC (M. tuberculosis H37Rv; read-out: minimum inhibitory concentration (MIC) against M. tuberculosis): 0.38 µM (≈ 0.323 µg/mL) |
| CCC1OC(=O)C(C)(F)C(=O)C(C)C(OC2OC(C)CC(N(C)C)C2O)C(C)(OC)CC(C)C(=O)C(C)C2N(NCCCc3ccnc4ccccc34)C(=O)OC12C (stereo not shown) [RU3562] | 16 (≈ 13 µg/mL) |  |  |
| CC[C@H]1OC(=O)[C@H](C)C(=O)[C@H](C)[C@@H](O[C@@H]2O[C@H](C)C[C@H](N(C)C)[C@H]2O)[C@](C)(OC)C[C@@H](C)C(=NOCOCCOC)[C@H](C)[C@@H](O)[C@]1(C)O [RU54615] |  |  | MIC (M. tuberculosis H37Rv; [4]): >128 µM |
| CC[C@H]1OC(=O)[C@H](C)C(=O)[C@H](C)[C@@H](O[C@@H]2O[C@H](C)C[C@H](N(C)C)[C@H]2O)[C@](C)(OC)C[C@@H](C)C(=O)[C@H](C)[C@@H](O)[C@]1(C)O [RU56006] |  |  | MIC (M. tuberculosis H37Rv; [4]): >128 µM |
| CC[C@H]1OC(=O)[C@H](C)C(=O)[C@H](C)[C@@H](O[C@@H]2O[C@H](C)C[C@H](N(C)C)[C@H]2O)[C@](C)(OC)C[C@@H](C)C(=O)[C@H](C)[C@H]2N(CCCCn3ccnc3)C(=O)O[C@]12C [RU61205] | 112 (≈ 82.3 µg/mL) |  |  |
| CC[C@H]1OC(=O)[C@H](C)C(=O)[C@H](C)[C@@H](O[C@@H]2O[C@H](C)C[C@H](N(C)C)[C@H]2O)[C@](C)(OC)C[C@@H](C)C(=NOC2CCCN(C/C=C/c3ccc(-c4ccccc4)cc3)C2)[C@H](C)[C@@H](O)[C@]1(C)O (stereo partly shown) [RU61804] |  | most potent of the tested 9-oxime compounds | MIC (M. tuberculosis H37Rv; [4]): 0.5 µM (≈ 0.439 µg/mL) |
| CC[C@H]1OC(=O)[C@H](C)[C@@H](O[C@H]2CC(C)(OC)[C@@H](O)[C@H](C)O2)[C@H](C)[C@@H](O[C@@H]2O[C@H](C)C[C@H](N(C)C)[C@H]2O)[C@](C)(OC)C[C@@H](C)C(=O)[C@H](C)[C@H]2N(CCCCc3ccnc4ccccc34)C(=O)O[C@]12C (stereo partly shown) [RU66080] | 0.44 (≈ 0.421 µg/mL) |  |  |
| CC[C@H]1OC(=O)[C@H](C)C(=O)[C@H](C)[C@@H](O[C@@H]2O[C@H](C)C[C@H](N(C)C)[C@H]2O)[C@](C)(OC)C[C@@H](C)C(=O)[C@H](C)[C@H]2N(CCCn3cnc4c3c(=O)n(C)c(=O)n4C)C(=O)O[C@]12C [RU66740] | >128 |  |  |
| CC[C@H]1OC(=O)[C@H](C)[C@@H](O[C@H]2C[C@@](C)(OC)[C@@H](O)[C@H](C)O2)[C@H](C)[C@@H](O[C@@H]2O[C@H](C)C[C@H](N(C)C)[C@H]2O)[C@](C)(OC)C[C@@H](C)C(=O)[C@H](C)[C@H]2N(CCCCn3cnc(-c4cccnc4)c3)C(=O)O[C@]12C [RU69874] |  | very low | in vitro toxicity / cytotoxicity in words (VERO cells): comparable to clarithromycin; signs of overt toxicity (weight loss, ruffled fur, huddling) [1]: No signs of overt toxicity |
| CC[C@H]1OC(=O)[C@H](C)C(=O)[C@H](C)[C@@H](O[C@@H]2O[C@H](C)C[C@H](N(C)C)[C@H]2O)[C@](C)(OC)C[C@@H](C)C(=O)[C@H](C)[C@H]2N(NCCc3ccccc3)C(=O)O[C@]12C [RU70645] | 14 (≈ 10.2 µg/mL) |  |  |
| CC[C@H]1OC(=O)[C@H](C)C(=O)[C@H](C)[C@@H](O[C@@H]2O[C@H](C)C[C@H](N(C)C)[C@H]2O)[C@](C)(OC)C[C@@H](C)C(=O)[C@H](C)[C@H]2N(CCCCn3cnc(-c4cccnc4)c3)C(=O)O[C@]12C [Telithromycin, reference compound] |  | less active than clarithromycin | MIC (M. tuberculosis H37Rv; Mycobacterium tuberculosis, H37RV, Table 1a, 11,12-carbamate derivatives, anti-TB activity, read-out: MIC): 48 µM (≈ 39 µg/mL); pIC50 ([2]; J774.1, read-out: J774 IC50): 3.99; pIC50 ([2]; J774.1, read-out: toxicity based on J774 cells): 3.99 |
| cethromycin [ABT773, reference compound] | 3 |  | MIC against M. tuberculosis (M. tuberculosis H37Rv): 3 µM |
